Active and inactive are the calls of the source.
Assays:
Assay type in all cases: functional, cell-based
RAW [1] = test: Antiinflammatory activity against mouse RAW cells assessed as inhibition of LPS-induced IL-6 production at 10 uM by Q-PCR analysis
RAW [2] = test: Antiinflammatory activity against mouse RAW cells assessed as inhibition of LPS-induced IL-23 production at 10 uM by Q-PCR analysis
RAW [3] = test: Antiinflammatory activity against mouse RAW cells assessed as inhibition of LPS-induced TNFalpha production at 10 uM by Q-PCR analysis

Measured: inhibition

CC(=O)O[C@@H]1C[C@@]23C[C@@]24CC[C@H](O[C@@H]2OC[C@@H](O)[C@H](O)[C@H]2O)C(C)(C)[C@@H]4CC=C3[C@]2(C)C[C@]3(O)O[C@H](C(=O)[C@@H]4OC4(C)C)[C@@H](C)[C@@H]3[C@@]12C
active: RAW [1] | RAW [2] | RAW [3]

CC(=O)O[C@@H]1C[C@@]23C[C@@]24CC[C@H](O[C@@H]2O[C@H](CO)[C@H](O)[C@H](O)[C@H]2O)C(C)(C)[C@@H]4CC[C@H]3[C@]2(C)C[C@]3(O)O[C@H](C(=O)[C@@H]4OC4(C)C)[C@@H](C)[C@@H]3[C@@]12C
active: RAW [1] | RAW [2] | RAW [3]

— ChEMBL document CHEMBL3352096, “New 9,19-cycloartenol glycosides isolated from the roots of Cimicifuga simplex and their anti-inflammatory effects” (Bioorg Med Chem Lett, 2014)
